Test results taken from patent US20240262826A1, “WILD TYPE KIT INHIBITORS” (Blueprint Medicines Corporation, priority 2022, published 2024).

What was measured:
wild type c-kit [1] = target: T1, wild type c-kit (Homo sapiens (Human), UniProt P10721); assay: MSD Phospho c-Kit (Tyr721) Assay Whole Cell Lysate Kit in SCF-stimulated M-07e cells (pKIT assay, marked *); assay type: cell-based; details: Meso Scale Discovery (MSD) assay (values marked *)
Method: The ability of compounds of the disclosure (described herein as test compounds) to inhibit autophosphorylation of wild type c-kit was measures using either a PathScan phospho c-kit (Tyr719) sandwich ELISA (CST #7298) or a Phospho c-Kit (Tyr721) Assay Whole Cell Lysate Kit (MSD: 515DPD/catalog number K15119D-2).
For the MSD Phospho c-Kit (Tyr721) Assay Whole Cell Lysate Kit: M-07e cells were maintained in Iscove's Modified Dulbecco's Medium (IMDM) media supplemented with 10% FBS, 5 ng/ml granulocyte-macrophage colony-stimulating factor (GM-CSF) and 100 units/mL Penicillin-Streptomycin, and grown in a 37° C., 5% CO2 in a humidified tissue culture incubator. M-07e cells were washed with phenol red-free, serum-free, GM-CSF-free IMDM and seeded in the same media at 100,000 cells well in a volume of 50 ul in a 96-well U-bottom plate. The cells were incubated for 4 hours, followed by the addition of test compound at a final DMSO concentration of 0.25% for 60 min at 37° C. to generate an 8-point dose concentration series of test compounds. The cells were stimulated with 50 ng/ml human SCF for 10 min at room temperature. Cells were then lysed by the addition of 16.5 ul of PerkinElmer 5× AlphaLISA Lysis Buffer supplemented with Cell Signaling Technologies protease/phosphatase inhibitor. Lysis was encouraged by shaking at 4° C. for 30 minutes.
25 ul of lysate was transferred to the MSD plate and the plate was shaken at 700 rpm at room temperature for one hour, followed by washing 3 times with Tris wash buffer. Next, 25 ul of detection antibody solution (diluted from 50× stock in antibody dilution buffer) was added. After shaking at 700 rpm at room temperature for one hour, the plate was washed 3 times with Tris wash buffer. The plate was then read on MSD Sector Imager immediately after 150 ul of reading buffer added to each well.
An IC50 was calculated using a 4-parameter logistic nonlinear regression.

[2] = target: human P-glycoprotein (P-gp, MDR1) (Homo sapiens (Human), UniProt P08183); assay: MDCK-MDR1 cell monolayer drug transport assay (P-gp efflux ratio); assay type: in vitro ADME; details: pH 7.4, MDCK-MDR1 cells, 1 uM concentration of compound, read-out: Pgp Efflux Ratio, 1 uM
human P-glycoprotein (P-gp, MDR1), sequence (P08183 whole entry): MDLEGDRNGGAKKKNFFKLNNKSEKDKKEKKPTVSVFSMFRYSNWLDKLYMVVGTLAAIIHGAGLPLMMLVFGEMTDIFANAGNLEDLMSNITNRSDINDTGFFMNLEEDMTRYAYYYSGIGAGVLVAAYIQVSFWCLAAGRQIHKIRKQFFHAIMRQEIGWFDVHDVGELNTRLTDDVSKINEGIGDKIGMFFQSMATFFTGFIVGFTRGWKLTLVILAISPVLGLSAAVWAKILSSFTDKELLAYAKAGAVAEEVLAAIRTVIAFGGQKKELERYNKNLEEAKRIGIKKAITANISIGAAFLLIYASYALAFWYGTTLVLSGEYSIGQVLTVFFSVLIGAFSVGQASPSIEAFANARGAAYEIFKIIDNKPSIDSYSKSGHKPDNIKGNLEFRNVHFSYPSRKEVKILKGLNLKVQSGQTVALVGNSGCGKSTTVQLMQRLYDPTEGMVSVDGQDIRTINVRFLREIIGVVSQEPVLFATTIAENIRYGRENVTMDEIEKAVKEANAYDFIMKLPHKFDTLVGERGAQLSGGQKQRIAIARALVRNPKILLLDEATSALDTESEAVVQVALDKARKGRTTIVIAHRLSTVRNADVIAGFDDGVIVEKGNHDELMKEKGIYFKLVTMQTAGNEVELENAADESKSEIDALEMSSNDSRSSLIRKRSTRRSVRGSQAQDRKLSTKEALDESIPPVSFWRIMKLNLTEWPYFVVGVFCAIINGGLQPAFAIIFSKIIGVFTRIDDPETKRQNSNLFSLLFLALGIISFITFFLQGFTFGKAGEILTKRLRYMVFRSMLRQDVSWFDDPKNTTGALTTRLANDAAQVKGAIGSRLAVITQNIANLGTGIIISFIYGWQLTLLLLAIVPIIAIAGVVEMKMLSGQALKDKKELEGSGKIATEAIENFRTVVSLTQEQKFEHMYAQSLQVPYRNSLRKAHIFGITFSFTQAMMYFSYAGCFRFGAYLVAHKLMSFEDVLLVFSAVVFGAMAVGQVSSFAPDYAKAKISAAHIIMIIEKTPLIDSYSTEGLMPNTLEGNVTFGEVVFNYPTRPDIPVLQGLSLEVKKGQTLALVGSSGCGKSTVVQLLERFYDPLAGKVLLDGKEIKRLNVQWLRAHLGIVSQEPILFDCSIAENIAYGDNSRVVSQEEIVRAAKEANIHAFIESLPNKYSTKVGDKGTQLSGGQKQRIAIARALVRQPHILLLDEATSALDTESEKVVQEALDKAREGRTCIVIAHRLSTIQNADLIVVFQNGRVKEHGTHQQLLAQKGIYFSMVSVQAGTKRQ
Outline: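 P-gp substrate potential tested in MDCK-MDR1 monolayers on Transwell supports, cultured 4-8 days; monolayers with TEER <42 ohms·cm2 discarded. Transport run in HBSS (10 mM HEPES, pH 7.4) at 37° C with compound working solution at 1 μM.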

Exon 11 KIT = Exon 11 KIT (Homo sapiens (Human), UniProt P10721, V560G); assay: Exon 11 HMC1.1 autophosphorylation assay (Phospho-Y719 c-KIT ELISA); assay type: cell-based; details: 90 minutes, read-out: IC50 HMC1.1 pKIT
Exon 11 KIT, sequence (P10721 26-976 V560G): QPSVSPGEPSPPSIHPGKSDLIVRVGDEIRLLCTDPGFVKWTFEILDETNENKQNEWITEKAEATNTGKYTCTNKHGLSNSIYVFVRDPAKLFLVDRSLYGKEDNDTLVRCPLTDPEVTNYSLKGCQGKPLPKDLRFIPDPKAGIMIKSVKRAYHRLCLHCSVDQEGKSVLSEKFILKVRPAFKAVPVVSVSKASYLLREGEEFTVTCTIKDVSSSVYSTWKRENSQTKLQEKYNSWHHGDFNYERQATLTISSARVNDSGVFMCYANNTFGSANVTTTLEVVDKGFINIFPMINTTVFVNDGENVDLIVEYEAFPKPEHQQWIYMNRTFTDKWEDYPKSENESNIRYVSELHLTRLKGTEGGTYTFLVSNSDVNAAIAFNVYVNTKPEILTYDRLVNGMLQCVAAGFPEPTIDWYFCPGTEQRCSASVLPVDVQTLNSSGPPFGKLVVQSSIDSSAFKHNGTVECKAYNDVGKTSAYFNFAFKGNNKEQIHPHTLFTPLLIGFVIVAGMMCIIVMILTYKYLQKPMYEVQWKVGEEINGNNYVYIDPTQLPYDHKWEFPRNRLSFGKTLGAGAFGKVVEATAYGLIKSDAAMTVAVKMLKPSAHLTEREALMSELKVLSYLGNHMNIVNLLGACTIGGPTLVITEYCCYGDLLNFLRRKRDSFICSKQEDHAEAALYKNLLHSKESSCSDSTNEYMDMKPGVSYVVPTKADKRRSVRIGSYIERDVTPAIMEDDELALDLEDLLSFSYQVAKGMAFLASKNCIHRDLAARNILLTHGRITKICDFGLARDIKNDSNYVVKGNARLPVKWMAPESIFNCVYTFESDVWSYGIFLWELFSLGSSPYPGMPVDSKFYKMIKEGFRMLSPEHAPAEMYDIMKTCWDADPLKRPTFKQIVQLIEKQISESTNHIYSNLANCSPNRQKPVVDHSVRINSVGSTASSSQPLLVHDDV
Method: Exon 11 HMC1.1 autophosphorylation assay: 50,000 HMC1.1 cells were incubated in 50 ul culture media (phenol-red free IMDM, no iron, no serum) in each well of a 96-well plate and serum starved 4 hours in a tissue culture incubator (5% CO2, 37° C.). An 8-point dose concentration series of compound were then added to the cells in a volume of 7 ul to each well. After 90 minutes, 14 ul of 5× AlphaLISA Lysis Buffer (Perkin Elmer) supplemented with a protease and phosphatase inhibitor cocktail (Cell Signaling Technologies) was added to each well and shaken at […] for 5 minutes at 4° C. Phospho-Y719 c-KIT ELISA kit from Cell Signaling Technology was used to assess levels of phospho KIT.

wild type c-kit [3] = target: T1, wild type c-kit; assay: PathScan phospho c-kit (Tyr719) sandwich ELISA in SCF-stimulated M-07e cells (pKIT assay); assay type: cell-based; details: ELISA assay (values not marked *)
Outline: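 Tyr719-phosphorylated c-kit was measured by colorimetric (TMB) sandwich ELISA in lysates of M-07e cells. Cells were starved 4 h without serum or GM-CSF, dosed 60 min at 37 °C with compound (8 points, duplicate, 0.25% DMSO), and stimulated 10 min with human SCF (500 ng/mL as added). IC50 values came from 4-parameter logistic regression.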

[4] = system: NIH3T3 cell lines that overexpressed the kit mutation exon 9; assay: Exon 9 assay: cell viability (CellCounting Lite 2.0), 72 hours; assay type: cell-based; details: Mus musculus, read-out: IC50 NIH3T3-cKit-AY502-3dup
Method: (§1) Exon 9 assay: The NIH3T3 cell lines that overexpressed the kit mutation exon 9 (or parental cells) were resuscitated and well cultured, and the cells were collected and seeded in 96-well plates at 3000/well, then the compounds were added to the 96 well plates in a gradient dilution, and the plates were incubated in an incubator for 72 hours.
(§2) After 72 hours of incubation, an equal volume of CellCounting
(§3) Lite 2.0 Luminescent Cell Viability reagent was added to the 96-well plates to detect the cell viability. The data were analyzed using GraphPad Prism 7.0 softwar e, and the nonlinear S-curve regression was used to fit the data to obtain the dose-effect curve, and the IC50 value was calculated accordingly.

NIH3T3 parental cells = assay: Exon 9 assay, parental cells: cell viability (CellCounting Lite 2.0), 72 hours; assay type: cell-based; details: Mus musculus
Method: as §1, §2, §3

T1 sequence (P10721 26-976): as the sequence (P10721 26-976 V560G) above, with G535V counted along it

Compound | IC50 (wild type c-kit [1]) [nM] | efflux ratio at 2 h, 1 µM [2] | IC50 (Exon 11 KIT) [nM] | IC50 (wild type c-kit [3]) [nM] | IC50 [4] [nM] | IC50 (NIH3T3 parental cells) [nM]
Cc1ccc(-c2nnn(C)n2)cc1NC(=O)c1cnn2ccc(-c3cn[nH]c3)cc12 [Example 43, N-(2-methyl-5-(2-methyl-2H-tetrazol-5-yl)phenyl)-5-(1H-pyrazol-4-yl)pyrazolo[1,5-a]pyridine-3-carboxamide] | 5.4 | 11.9 | – | – | – | –
Cc1ccc(-c2nnn([C@H]3C[C@H](C(F)(F)F)C3)n2)cc1NC(=O)c1cnn2ccc(-c3cn[nH]c3)cc12 [Example 44, N-(2-methyl-5-(2-((1r,3r)-3-(trifluoromethyl)cyclobutyl)-2H-tetrazol-5-yl)phenyl)-5-(1H-pyrazol-4-yl)pyrazolo[1,5-a]pyridine-3-carboxamide or N-(2-methyl-5-(2-((1s,3s)-3-(trifluoromethyl)cyclobutyl)-2H-tetrazol-5-yl)phenyl)-5-(1H-pyrazol-4-yl)pyrazolo[1,5-a]pyridine-3-carboxamide] | 1.5 | 15.9 | – | – | – | –
Cc1ccc(-c2nnn(C3CN(S(C)(=O)=O)C3)n2)cc1NC(=O)c1cnn2ccc(C3CC3)cc12 [Example 50, 5-cyclopropyl-N-(2-methyl-5-(2-(1-(methylsulfonyl)azetidin-3-yl)-2H-tetrazol-5-yl)phenyl)pyrazolo[1,5-a]pyridine-3-carboxamide] | 8 | 6.5 | – | – | – | –
COC(=O)N1CC(c2cnn(-c3ccc(C)c(NC(=O)c4cnn5ccc(N6CCN(C)CC6)cc45)c3)n2)C1 [Example 81, methyl 3-(2-(4-methyl-3-(5-(4-methylpiperazin-1-yl)pyrazolo[1,5-a]pyridine-3-carboxamido)phenyl)-2H-1,2,3-triazol-4-yl)azetidine-1-carboxylate] | – | – | 6.4 | 19 | – | –
COCCNc1ccn2ncc(C(=O)Nc3cc(-c4nnn(C5CN(C(=O)OC)C5)n4)ccc3C)c2c1 [Example 148, methyl 3-(5-(3-(5-((2-methoxyethyl)amino)pyrazolo[1,5-a]pyridine-3-carboxamido)-4-methylphenyl)-2H-tetrazol-2-yl)azetidine-1-carboxylate] | – | 24.9 | 1 | 34.8 | – | –
COc1ccn2ncc(C(=O)Nc3cc(-c4nnn(C5CN(S(C)(=O)=O)C5)n4)ccc3C)c2c1 [Example 153, 5-methoxy-N-(2-methyl-5-(2-(1-(methylsulfonyl)azetidin-3-yl)-2H-tetrazol-5-yl)phenyl)pyrazolo[1,5-a]pyridine-3-carboxamide] | 4.5 | 3.9 | – | – | – | –
Cc1ccc(-c2nnn(C3CN(S(=O)(=O)C4(C)CC4)C3)n2)cc1NC(=O)c1cnn2ccccc12 [Example 181, N-(2-methyl-5-(2-(1-((1-methylcyclopropyl)sulfonyl)azetidin-3-yl)-2H-tetrazol-5-yl)phenyl)pyrazolo[1,5-a]pyridine-3-carboxamide] | 6.4 | 3.1 | – | – | – | –
Cc1ccc(-c2nnn(C3CC(F)(F)C3)n2)cc1NC(=O)c1cnn2ccc(-c3cn[nH]c3)cc12 [Example 198, N-(5-(2-(3,3-difluorocyclobutyl)-2H-tetrazol-5-yl)-2-methylphenyl)-5-(1H-pyrazol-4-yl)pyrazolo[1,5-a]pyridine-3-carboxamide] | 1.7 | 16.6 | – | – | – | –
Cc1ccc(-c2nnn(C3CN(S(=O)(=O)CCO)C3)n2)cc1NC(=O)c1cnn2ccccc12 [Example 203, N-(5-(2-(1-((2-hydroxyethyl)sulfonyl)azetidin-3-yl)-2H-tetrazol-5-yl)-2-methylphenyl)pyrazolo[1,5-a]pyridine-3-carboxamide] | 16.7 | 12.8 | – | – | – | –

Further lines, with some results ahead:

IC50 (wild type c-kit [1]) [nM] | efflux ratio at 2 h, 1 µM [2] | IC50 (Exon 11 KIT) [nM] | IC50 (wild type c-kit [3]) [nM] | Compound | IC50 [4] [nM] | IC50 (NIH3T3 parental cells) [nM]
– | 3.2 | 0.7 | 0.5 | COC[C@@H](O)Cn1cc(-c2ccn3ncc(C(=O)Nc4cc(-c5nnn(C6CC6)n5)ccc4Cl)c3c2)cn1 [Example 237, (S)-N-(2-chloro-5-(2-cyclopropyl-2H-tetrazol-5-yl)phenyl)-5-(1-(2-hydroxy-3-methoxypropyl)-1H-pyrazol-4-yl)pyrazolo[1,5-a]pyridine-3-carboxamide] | 15.6 | –
– | 13.2 | 0.9 | 0.3 | Cc1cc(F)c(-c2nnn(C3CC3)n2)cc1NC(=O)c1cnn2ccc(-c3cn(CC(C)(C)O)nc3C)cc12 [Example 239, N-(5-(2-cyclopropyl-2H-tetrazol-5-yl)-4-fluoro-2-methylphenyl)-5-(1-(2-hydroxy-2-methylpropyl)-3-methyl-1H-pyrazol-4-yl)pyrazolo[1,5-a]pyridine-3-carboxamide] | – | –
– | 3 | 0.2 | 0.2 | COC[C@@H](O)Cn1cc(-c2ccn3ncc(C(=O)Nc4cc(-c5nnn(C6CC6)n5)ccc4Cl)c3c2)c(C)n1 [Example 263, (S)-N-(2-chloro-5-(2-cyclopropyl-2H-tetrazol-5-yl)phenyl)-5-(1-(2-hydroxy-3-methoxypropyl)-3-methyl-1H-pyrazol-4-yl)pyrazolo[1,5-a]pyridine-3-carboxamide] | 2 | 123
– | 3.6 | 0.2 | 0.3 | Cc1nn(C[C@H](C)O)cc1-c1ccn2ncc(C(=O)Nc3cc(-c4nnn(C5CC5)n4)ccc3Cl)c2c1 [Example 278, (S)—N-(2-chloro-5-(2-cyclopropyl-2H-tetrazol-5-yl)phenyl)-5-(1-(2-hydroxypropyl)-3-methyl-1H-pyrazol-4-yl)pyrazolo[1,5-a]pyridine-3-carboxamide] | – | –
– | – | – | 0.2 | Cc1nn(C[C@H](C)O)cc1-c1ccn2ncc(C(=O)Nc3cc(-c4nnn(C5CC5)n4)c(F)cc3Cl)c2c1 [Example 280, (S)—N-(2-chloro-5-(2-cyclopropyl-2H-tetrazol-5-yl)-4-fluorophenyl)-5-(1-(2-hydroxypropyl)-3-methyl-1H-pyrazol-4-yl)pyrazolo[1,5-a]pyridine-3-carboxamide] | 10 | 413
– | – | 0.2 | 0.2 | CCn1nnc(-c2ccc(Cl)c(NC(=O)c3cnn4ccc(-c5cn(C[C@H](O)COC)nc5C)cc34)c2)n1 [Example 284, (S)—N-(2-chloro-5-(2-ethyl-2H-tetrazol-5-yl)phenyl)-5-(1-(2-hydroxy-3-methoxypropyl)-3-methyl-1H-pyrazol-4-yl)pyrazolo[1,5-a]pyridine-3-carboxamide] | 7.5 | 161
– | – | – | 0.3 | COCCOC[C@H](O)Cn1cc(-c2ccn3ncc(C(=O)Nc4cc(-c5nnn(C6CC6)n5)c(F)cc4Cl)c3c2)c(C)n1 [Example 286, (R)—N-(2-chloro-5-(2-cyclopropyl-2H-tetrazol-5-yl)-4-fluorophenyl)-5-(1-(2-hydroxy-3-(2-methoxyethoxy)propyl)-3-methyl-1H-pyrazol-4-yl)pyrazolo[1,5-a]pyridine-3-carboxamide] | 42.5 | 480
